Where two headings read alike, the source gives them in different places.
Tests used:
MCF-7 cells = test: MTT in vitro cytotoxicity assay, MCF-7; format: cell-based; conditions: Homo sapiens, MCF7, 48 h incubation, mean ± SEM
Procedure: (§1) The promyelocytic leukemia HL-60 and breast cancer adenocarcinoma MCF-7 cell lines were purchased from the European Collection of Cell Cultures (ECACC). Leukemia cells were cultured in RPMI 1640 plus GlutaMax I medium (Gibco/Life Technologies, Carlsbad, CA, USA). MCF-7 cells were maintained in Minimum Essential Medium Eagle (Sigma Aldrich, St. Louis, MO, USA) and supplemented with 2 mM glutamine and men non-essential amino acid solution (Sigma Aldrich, St. Louis, MO, USA). Both media were supplemented with 10% heat-inactivated fetal bovine serum (Biological Industries, Beit-Haemek, Israel) and antibiotics (100 U/mL penicillin and 100 μg/mL streptomycin) (Sigma-Aldrich, St. Louis, MO, USA). Human umbilical vein endothelial cells (HUVECs) were purchased from the American Type Culture Collection (ATCC). Cells were cultured using EGM-2 Endothelial Medium BulletKit purchased from Lonza (Lonza, Walkersville, MD, USA). Cells were maintained at 37 °C in 5% CO2 atmosphere and grown until 80% confluent.
(§2) The tested compounds were dissolved in sterile dimethyl sulfoxide (DMSO) and further diluted with culture medium. The final concentration of DMSO in cell cultures was less than 0.1% v/v. Controls without and with 0.1% DMSO were performed in each experiment. At the used concentration, DMSO had no effect on the observed parameters.
(§3) The MTT (3-(4,5-dimethylthiazol-2-yl)-2,5-diphenyltetrazolium bromide) assay, which measures the activity of cellular dehydrogenases, was performed according to the Mosmann method. Exponentially growing cells were seeded into 24-well plates at a density of 8 × 10^4 cells/mL and left to grow for 24 h. After 24 h or 48 h of incubation with various concentrations of the tested compounds (dissolved in DMSO and diluted with complete culture medium), cells were incubated with 0.1 mL of MTT solution (5 mg/mL in phosphate buffered saline) for 1.5 h. The metabolically active cells reduced MTT to blue formazan crystals. The plates were centrifuged, and the supernatant was discarded. DMSO (1 mL) was added to each well to dissolve the crystals, whose absorbance was measured at 560 nm using FlexStation 3 Multi-Mode Microplate Reader (Molecular Devices, LLC, San Jose, CA, USA). The untreated cells were used as control. The IC50 values were calculated from the concentration–response curves. The data were expressed as mean ± SEM of three independent experiments.

HL-60 cells [1] = test: MTT in vitro cytotoxicity assay, HL-60; format: cell-based; conditions: Homo sapiens
Procedure: as §1, §2, §3

HUVEC cells = test: MTT in vitro cytotoxicity assay, HUVEC (normal cells); format: cell-based, human; conditions: Homo sapiens, HUVEC, 48 h incubation, mean ± SEM
Procedure: as §1, §2, §3

HL-60 cells [2] = test: Cell proliferation by BrdU incorporation, flow cytometry; format: cell-based; conditions: 1.8 µM
Procedure: To evaluate the anticancer potential of 5a, the ability of this compound to inhibit cell proliferation, induce apoptotic cell death, and generate DNA damage was examined by flow cytometry using the ‘Apoptosis, DNA Damage, and Cell Proliferation Kit’ (BD Bioscience). After 24 h treatment with 5a in increasing concentrations, HL-60 cells were exposed to bromodeoxyuridine (BrdU) for additional 8 h. Then, the cells were simultaneously stained with fluorochrome-labeled anti-BrdU, anti-cleaved PARP (Asp214) and anti-H2AX (pS139).
BrdU is an analog of thymidine, and its incorporation into DNA was used as an index of cell proliferation. […] At 1.8 µM concentration, this analog caused a 2.2-fold decrease in BrdU incorporation (Figure 4a).
Cell proliferation, DNA damage, and apoptotic cell death were determined using Apoptosis, DNA Damage, and Cell Proliferation Kit (BD Bioscience, San Jose, CA, USA), according to the manufacturer protocol. Briefly, HL-60 cells were seeded in 6-well plates (4.0 × 10^5 cells/mL) in 2 mL of growth medium and treated with 5a for 24 h. […] Next, the cells were collected by centrifugation (300× g, 5 min), counted, fixed, and permeabilized according to the manufacturer’s instructions. […] After washing, DNA staining with DAPI (1 µg/mL of the staining buffer) was performed, and the cells were analyzed by flow cytometry using CytoFLEX (Beckman Coulter, Inc., Brea, CA, USA).

ABCB1 gene expression = test: Real-time PCR of ABCB1 mRNA level in HL-60 cells; format: cell-based; conditions: higher concentration (1.8 µM; 0.9 and 1.8 µM tested), 24 h
Excerpt: Overexpression of ATP-binding cassette (ABC) transporters causing multidrug resistance (MDR) in cancer cells is one of the major problems associated with poor therapeutic outcome of anticancer drugs. ABC transporters reduce the cellular uptake of drugs into cancer cells, defending them from medical interventions. In leukemia cells ABCB1 (P-glycoprotein), overexpression has been observed. […] It seemed interesting to determine if 3-methylidenequinolin-4-one 5a would also down-regulate ABCB1 mRNA levels in leukemia HL-60 cells. Here, we tested the ABCB1 gene expression of 5a at two concentrations, 0.9 and 1.8 µM. Compound 5a decreased the ABCB1 mRNA level at a higher concentration (Figure 6).
The mRNA level of the ABCB1 gene was assessed using quantitative real-time PCR. Briefly, HL-60 cells were seeded in 6-well plates (4.0 × 10^5 cells/mL) in 2 mL of growth medium and treated with 5a for 24 h. Total RNA was extracted using the Total RNA Mini Kit (A&A Biotechnology, Gdynia, Poland) according to the manufacturer’s protocol. The concentration of RNA used for further experiments was 500 ng. cDNA was synthesized using Transcriba Kit (A&A Biotechnology, Gdynia, Poland). […] The expression level of ABCB1 gene was determined by the 2^−∆∆CT method.

## C=C1C(=O)c2ccccc2N(S(=O)(=O)c2ccccc2)C1CC (stereo not shown) [Compound 5a, 2-Ethyl-3-methylidene-1-(phenylsulfonyl)-2,3-dihydroquinolin-4(1H)-one]
MCF-7 cells
  IC50: 2.74 ± 0.07 µM
HL-60 cells [1]; HL-60, 24 h, 24 h incubation, read-out: IC50 HL-60 after 24 h incubation
  IC50: 0.91 ± 0.03 µM
HL-60 cells [1]; HL-60, 48 h, 48 h incubation, mean ± SEM, read-out: IC50 HL-60
  IC50: 0.34 ± 0.03 µM
HUVEC cells
  IC50: 1.87 ± 0.02 µM
HL-60 cells [2]; 24 h, Figure 3a
  BrdU positive cells (representative plot): 17.5%
HL-60 cells [2]; 24 h treatment then BrdU 8 h, vs control
  decrease in BrdU incorporation: 2.2 fold
ABCB1 gene expression
  ABCB1 mRNA level: decreased
